Experimental data taken from patent publication US11174252B2, “Heterocyclic compounds as kinase inhibitors” (priority 2018, dated 2021).
Structures can show the parent of a compound that is named as a salt. Where two headings read alike, the source gives them in different places.

How the values were obtained:
MCF-7 = assay: Cancer cell proliferation assay, single agent; format: cell-based; conditions: Homo sapiens
FMS kinase = FMS kinase (Homo sapiens (Human), UniProt P07333); assay: LanthaScreen kinase assay (ATP, fluorescent-PolyGT substrate, TR-FRET); format: biochemical
CDK4 = CDK4 (Homo sapiens (Human), UniProt P11802); assay: In vitro kinase inhibition, luminescence (ADP-Glo) with retinoblastoma substrate; format: biochemical
CDK6 = CDK6 (Homo sapiens (Human), UniProt Q00534); assay: biochemical; format: biochemical
[1] = MCF7, MCF-7 cells, treated for 24-168 hours, read-out: IC50 (nM) MCF-7
[2] = MCF7, read-out: IC50 (nM) MCF-7

Sequence of CDK4 (P11802 whole entry): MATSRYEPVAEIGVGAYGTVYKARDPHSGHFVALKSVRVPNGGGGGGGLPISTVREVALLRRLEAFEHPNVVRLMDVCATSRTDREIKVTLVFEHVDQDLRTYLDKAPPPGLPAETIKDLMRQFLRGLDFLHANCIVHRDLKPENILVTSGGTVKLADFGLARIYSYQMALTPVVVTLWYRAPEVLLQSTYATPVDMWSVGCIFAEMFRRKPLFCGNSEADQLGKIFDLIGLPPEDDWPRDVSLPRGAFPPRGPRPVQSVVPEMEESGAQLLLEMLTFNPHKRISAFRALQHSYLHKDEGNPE
Sequence of CDK4 (P24385 whole entry partner): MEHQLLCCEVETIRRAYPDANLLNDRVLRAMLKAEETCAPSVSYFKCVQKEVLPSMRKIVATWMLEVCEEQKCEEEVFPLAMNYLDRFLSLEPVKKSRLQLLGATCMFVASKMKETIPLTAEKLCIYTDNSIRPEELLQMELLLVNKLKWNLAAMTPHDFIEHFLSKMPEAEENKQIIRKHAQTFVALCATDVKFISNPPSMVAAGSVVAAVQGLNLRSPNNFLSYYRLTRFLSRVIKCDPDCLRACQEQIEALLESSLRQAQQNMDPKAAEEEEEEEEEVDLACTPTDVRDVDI
Sequence of FMS kinase (P07333 20-972): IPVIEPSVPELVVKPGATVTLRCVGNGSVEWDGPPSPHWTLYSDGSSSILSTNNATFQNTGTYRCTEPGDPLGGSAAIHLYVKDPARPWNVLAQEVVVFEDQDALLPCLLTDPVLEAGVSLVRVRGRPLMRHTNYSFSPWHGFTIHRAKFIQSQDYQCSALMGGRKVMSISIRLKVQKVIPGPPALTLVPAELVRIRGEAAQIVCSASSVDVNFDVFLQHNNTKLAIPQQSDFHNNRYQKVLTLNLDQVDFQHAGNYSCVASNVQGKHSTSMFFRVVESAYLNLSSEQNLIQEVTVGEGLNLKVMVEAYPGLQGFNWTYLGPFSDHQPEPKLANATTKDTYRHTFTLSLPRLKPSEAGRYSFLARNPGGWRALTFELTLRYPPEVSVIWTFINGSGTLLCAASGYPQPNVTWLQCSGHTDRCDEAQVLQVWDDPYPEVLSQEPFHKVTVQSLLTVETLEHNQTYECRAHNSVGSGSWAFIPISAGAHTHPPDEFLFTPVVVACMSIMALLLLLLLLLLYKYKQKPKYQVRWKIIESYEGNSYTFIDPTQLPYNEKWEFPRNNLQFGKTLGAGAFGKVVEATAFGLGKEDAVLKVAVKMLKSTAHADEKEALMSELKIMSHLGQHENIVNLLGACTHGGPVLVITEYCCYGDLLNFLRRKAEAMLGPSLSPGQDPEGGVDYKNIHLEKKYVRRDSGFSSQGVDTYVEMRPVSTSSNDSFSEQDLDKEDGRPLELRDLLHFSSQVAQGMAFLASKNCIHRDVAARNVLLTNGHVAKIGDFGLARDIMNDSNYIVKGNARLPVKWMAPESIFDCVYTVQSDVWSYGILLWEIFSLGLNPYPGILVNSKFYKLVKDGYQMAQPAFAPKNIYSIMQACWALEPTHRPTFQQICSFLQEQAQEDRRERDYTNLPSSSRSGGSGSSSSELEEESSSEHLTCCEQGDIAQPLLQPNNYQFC

Row | IC50 (CDK4) | IC50 (CDK6) | Structure (SMILES) | IC50 (MCF-7; [1]) | IC50 (FMS kinase) | IC50 (MCF-7; [2])
1 | – | – | CC(C)N1CCc2ccc(Nc3ncc(F)c(-c4cc(F)c5c(c4)N(C(C)C)CCO5)n3)cc2C1 [Compound 19, N-(5-fluoro-4-(8-fluoro-4-isopropyl-3,4-dihydro-2H-benzo[b][1,4]oxazin-6-yl)pyrimidin-2-yl)-2-isopropyl-1,2,3,4-tetrahydroisoquinolin-7-amine] | < 10 nM | 0.003 µM | –
2 | – | – | CC(C)N1CCOc2c(F)cc(-c3nc(Nc4ccc(N5CCNCC5)c(F)c4F)ncc3F)cc21 [Compound 28, N-(2,3-difluoro-4-(piperazin-1-yl)phenyl)-5-fluoro-4-(8-fluoro-4-isopropyl-3,4-dihydro-2H-benzo[b][1,4]oxazin-6-yl)pyrimidin-2-amine] | – | 0.123 µM | 150 nM
3 | 0.044 µM | 0.107 µM | CC(C)N1CCOc2c(F)cc(-c3nc(Nc4ccc(C5CCN(C)CC5)c(C5CC5)n4)ncc3F)cc21 [Compound 847, N-(6-cyclopropyl-5-(1-methylpiperidin-4-yl)pyridin-2-yl)-5-fluoro-4-(8-fluoro-4-isopropyl-3,4-dihydro-2H-benzo[b][1,4]oxazin-6-yl)pyrimidin-2-amine] | – | – | –
4 | – | – | CC(C)N1CCOc2c(F)cc(-c3nc(Nc4cc(F)c(N5CCNCC5)cc4F)ncc3F)cc21 [Compound 31, N-(2,5-difluoro-4-(piperazin-1-yl)phenyl)-5-fluoro-4-(8-fluoro-4-isopropyl-3,4-dihydro-2H-benzo[b][1,4]oxazin-6-yl)pyrimidin-2-amine] | – | 0.049 µM | 193 nM
5 | – | – | CC(C)N1CCOc2c(F)cc(-c3nc(Nc4ccc5c(c4)CCNC5)ncc3F)cc21 [Compound 13, N-(5-fluoro-4-(8-fluoro-4-isopropyl-3,4-dihydro-2H-benzo[b][1,4]oxazin-6-yl)pyrimidin-2-yl)-1,2,3,4-tetrahydroisoquinolin-6-amine] | – | – | 3.8 nM
6 | – | – | CC(C)N1CCOc2c(F)cc(-c3nc(Nc4ccc5c(c4)CNCC5)ncc3F)cc21 [Compound 16, N-(5-fluoro-4-(8-fluoro-4-isopropyl-3,4-dihydro-2H-benzo[b][1,4]oxazin-6-yl)pyrimidin-2-yl)-1,2,3,4-tetrahydroisoquinolin-7-amine] | – | 0.0025 µM | 3.8 nM
7 | – | – | CC(C)N1CCc2cc(Nc3ncc(F)c(-c4cc(F)c5c(c4)N(C(C)C)CCO5)n3)ccc2C1 [Compound 22, N-(5-fluoro-4-(8-fluoro-4-isopropyl-3,4-dihydro-2H-benzo[b][1,4]oxazin-6-yl)pyrimidin-2-yl)-2-isopropyl-1,2,3,4-tetrahydroisoquinolin-6-amine] | < 10 nM | 0.0065 µM | –
8 | 0.023 µM | 0.029 µM | CC(C)N1CCOc2c(F)cc(-c3nc(Nc4ccc(C5CCN(C)CC5)c(C#N)n4)ncc3F)cc21 [Compound 845, 6-((5-fluoro-4-(8-fluoro-4-isopropyl-3,4-dihydro-2H-benzo[b][1,4]oxazin-6-yl)pyrimidin-2-yl)amino)-3-(1-methylpiperidin-4-yl)picolinonitrile] | – | – | –
9 | – | – | CC(C)N1CCOc2c(F)cc(-c3nc(Nc4ccn(C5=CCNCC5)c(=O)c4)ncc3F)cc21 [Compound 39, 4-((5-fluoro-4-(8-fluoro-4-isopropyl-3,4-dihydro-2H-benzo[b][1,4]oxazin-6-yl)pyrimidin-2-yl)amino)-1′,2′,3′,6′-tetrahydro-2H-[1,4′-bipyridin]-2-one] | 45 nM | 0.033 µM | –
10 | – | – | CC(C)N1CCOc2c(F)cc(-c3nc(Nc4ccc(N5CCNCC5)c(C#N)c4)ncc3F)cc21 [Compound 21, 5-((5-fluoro-4-(8-fluoro-4-isopropyl-3,4-dihydro-2H-benzo[b][1,4]oxazin-6-yl)pyrimidin-2-yl)amino)-2-(piperazin-1-yl) benzonitrile] | – | 0.163 µM | < 10 nM
11 | – | – | CC(C)N1CCOc2c(F)cc(-c3nc(Nc4ccc5c(c4)CC(N(C)C)C5)ncc3F)cc21 (stereo not shown) [Compound 37, N^5-(5-fluoro-4-(8-fluoro-4-isopropyl-3,4-dihydro-2H-benzo[b][1,4]oxazin-6-yl)pyrimidin-2-yl)-N^2,N^2-dimethyl-2,3-dihydro-1H-indene-2,5-diamine] | – | – | < 14 nM
12 | 0.044 µM | 0.11 µM | CCCc1nc(Nc2ncc(F)c(-c3cc(F)c4c(c3)N(C(C)C)CCO4)n2)ccc1C1CCN(C)CC1 [Compound 848, 5-fluoro-4-(8-fluoro-4-isopropyl-3,4-dihydro-2H-benzo[b][1,4]oxazin-6-yl)-N-(5-(1-methylpiperidin-4-yl)-6-propylpyridin-2-yl)pyrimidin-2-amine] | – | – | –
13 | – | – | CC(C)N1CCOc2c(F)cc(-c3nc(Nc4ccc(N5CCNCC5)cc4F)ncc3F)cc21 [Compound 11, 5-fluoro-N-(2-fluoro-4-(piperazin-1-yl)phenyl)-4-(8-fluoro-4-isopropyl-3,4-dihydro-2H-benzo[b][1,4]oxazin-6-yl)pyrimidin-2-amine] | – | 0.25 µM | 225 nM
14 | – | – | COc1cc(Nc2ncc(F)c(-c3cc(F)c4c(c3)N(C(C)C)CCO4)n2)ccc1N1CCNCC1 [Compound 29, 5-fluoro-4-(8-fluoro-4-isopropyl-3,4-dihydro-2H-benzo[b][1,4]oxazin-6-yl)-N-(3-methoxy-4-(piperazin-1-yl)phenyl)pyrimidin-2-amine] | – | 0.0025 µM | 48 nM
15 | – | – | CCN1CCN(Cc2ccc(Nc3ncc(F)c(-c4cc(F)c5c(c4)N(C(=O)C4CC4)CCO5)n3)nc2)CC1 [Compound 8, cyclopropyl(6-(2-((5-((4-ethylpiperazin-1-yl)methyl)pyridin-2-yl)amino)-5-fluoropyrimidin-4-yl)-8-fluoro-2,3-dihydro-4H-benzo[b][1,4]oxazin-4-yl)methanone] | – | > 5 µM | –
16 | – | – | CC(C)N1CCOc2c(F)cc(-c3nc(Nc4ccc(N5CCC(N(C)C)CC5)c(C(F)(F)F)c4)ncc3F)cc21 [Compound 178, N-(4-(4-(dimethylamino)piperidin-1-yl)-3-(trifluoromethyl)phenyl)-5-fluoro-4-(8-fluoro-4-isopropyl-3,4-dihydro-2H-benzo[b][1,4]oxazin-6-yl)pyrimidin-2-amine] | 210 nM | 0.005 µM | –
17 | – | – | CC(C)N1CCOc2c(F)cc(-c3nc(Nc4cc(N5CCNCC5)ccn4)ncc3F)cc21 [Compound 5, 5-fluoro-4-(8-fluoro-4-isopropyl-3,4-dihydro-2H-benzo[b][1,4]oxazin-6-yl)-N-(4-(piperazin-1-yl)pyridin-2-yl)pyrimidin-2-amine] | – | > 3.63 µM | –
18 | 0.003 µM | 0.004 µM | CC(C)N1CCOc2c(F)cc(-c3nc(Nc4ccc(C5CCN(C)CC5)c(F)n4)ncc3F)cc21 [Compound 846, 5-fluoro-4-(8-fluoro-4-isopropyl-3,4-dihydro-2H-benzo[b][1,4]oxazin-6-yl)-N-(6-fluoro-5-(1-methylpiperidin-4-yl)pyridin-2-yl)pyrimidin-2-amine] | – | – | –
19 | 0.031 µM | 0.035 µM | COc1nc(Nc2ncc(F)c(-c3cc(F)c4c(c3)N(C(C)C)CCO4)n2)ccc1C1CCN(C)CC1 [Compound 844, 5-fluoro-4-(8-fluoro-4-isopropyl-3,4-dihydro-2H-benzo[b][1,4]oxazin-6-yl)-N-(6-methoxy-5-(1-methylpiperidin-4-yl)pyridin-2-yl)pyrimidin-2-amine] | – | – | –
20 | – | – | CC(C)N1CCOc2c(F)cc(-c3nc(Nc4cccc5c4CCNC5)ncc3F)cc21 [Compound 15, N-(5-fluoro-4-(8-fluoro-4-isopropyl-3,4-dihydro-2H-benzo[b][1,4]oxazin-6-yl)pyrimidin-2-yl)-1,2,3,4-tetrahydroisoquinolin-5-amine] | – | 0.022 µM | 114 nM
21 | – | – | CC(C)N1CCc2c(cccc2Nc2ncc(F)c(-c3cc(F)c4c(c3)N(C(C)C)CCO4)n2)C1 [Compound 20, N-(5-fluoro-4-(8-fluoro-4-isopropyl-3,4-dihydro-2H-benzo[b][1,4]oxazin-6-yl)pyrimidin-2-yl)-2-isopropyl-, 2,3,4-tetrahydroisoquinolin-5-amine] | 145 nM | 0.017 µM | –
22 | – | – | CC(C)N1CCOc2c(F)cc(-c3nc(Nc4ccc(N5CCN(C)CC5)cc4)ncc3F)cc21 [Compound 6, 5-fluoro-4-(8-fluoro-4-isopropyl-3,4-dihydro-2H-benzo[b][1,4]oxazin-6-yl)-N-(4-(4-methylpiperazin-1-yl)phenyl)pyrimidin-2-amine] | 30 nM | 0.082 µM | –
23 | – | – | CC(C)N1CCOc2c(F)cc(-c3nc(Nc4ccc(C5CCNCC5)c(F)c4)ncc3F)cc21 [Compound 18, 5-fluoro-N-(3-fluoro-4-(piperidin-4-yl)phenyl)-4-(8-fluoro-4-isopropyl-3,4-dihydro-2H-benzo[b][1,4]oxazin-6-yl) pyrimidin-2-amine] | – | 0.019 µM | < 10 nM
24 | – | – | CC(C)N1CCOc2c(F)cc(-c3nc(Nc4ccc(N5CCN(C)CC5)c(F)c4)ncc3F)cc21 [Compound 14, 5-fluoro-N-(3-fluoro-4-(4-methylpiperazin-1-yl)phenyl)-4-(8-fluoro-4-isopropyl-3,4-dihydro-2H-benzo[b][1,4]oxazin-6-yl) pyrimidin-2-amine] | – | 0.049 µM | 11 nM

Row | Structure (SMILES) | IC50 (CDK4) | IC50 (CDK6) | IC50 (MCF-7; [1]) | IC50 (FMS kinase) | IC50 (MCF-7; [2])
25 | COC1CCN(c2ccc(Nc3ncc(F)c(-c4cc(F)c5c(c4)N(C(C)C)CCO5)n3)nc2)CC1 [Compound 843, 5-fluoro-4-(8-fluoro-4-isopropyl-3,4-dihydro-2H-benzo[b][1,4]oxazin-6-yl)-N-(5-(4-methoxypiperidin-1-yl)pyridin-2-yl)pyrimidin-2-amine hydrochloride] | 0.065 µM | 0.024 µM | – | – | –
26 | CC(C)N1CCN(c2ccc(Nc3ncc(F)c(-c4cc(F)c5c(c4)N(C(C)C)CCO5)n3)cc2F)CC1 [Compound 17, 5-fluoro-N-(3-fluoro-4-(4-isopropylpiperazin-1-yl)phenyl)-4-(8-fluoro-4-isopropyl-3,4-dihydro-2H-benzo[b][1,4]oxazin-6-yl)pyrimidin-2-amine] | 0.008 µM | – | – | 0.021 µM | 15 nM
